{"source": "ChEMBL document CHEMBL1201862", "about": "“PubChem BioAssay data set” (2004)", "assay_in_all_cases": "inhibition of tumour cell growth, NCI panel, 48 h", "key": {"A498": {"test_system": "A498"}, "TK-10": {"test_system": "TK-10"}, "Hs-578T": {"test_system": "Hs-578T"}, "T47D": {"test_system": "T47D"}, "COLO 205": {"test_system": "COLO 205"}, "A549": {"test_system": "A549"}, "KM12": {"test_system": "KM12"}, "MOLT-4": {"test_system": "MOLT-4"}, "DU-145": {"test_system": "DU-145"}, "Malme-3M": {"test_system": "Malme-3M"}, "K562": {"test_system": "K562"}, "OVCAR-3": {"test_system": "OVCAR-3"}, "MCF7": {"test_system": "MCF7"}, "IGROV-1": {"test_system": "IGROV-1"}, "HOP-92": {"test_system": "HOP-92"}, "HCT-116": {"test_system": "HCT-116"}, "MDA-MB-435": {"test_system": "MDA-MB-435"}, "EKVX": {"test_system": "EKVX"}, "RXF 393": {"test_system": "RXF 393"}, "MDA-N": {"test_system": "MDA-N"}, "NCI-H522": {"test_system": "NCI-H522"}, "SR": {"test_system": "SR"}, "MDA-MB-231": {"test_system": "MDA-MB-231"}, "SK-MEL-2": {"test_system": "SK-MEL-2"}, "SF-539": {"test_system": "SF-539"}, "SK-MEL-28": {"test_system": "SK-MEL-28"}, "UACC-257": {"test_system": "UACC-257"}, "RPMI-8226": {"test_system": "RPMI-8226"}, "SF-268": {"test_system": "SF-268"}, "NCI-H226": {"test_system": "NCI-H226"}, "SW-620": {"test_system": "SW-620"}, "NCI-H460": {"test_system": "NCI-H460"}, "BT-549": {"test_system": "BT-549"}, "SK-MEL-5": {"test_system": "SK-MEL-5"}, "CCRF-CEM": {"test_system": "CCRF-CEM"}, "OVCAR-5": {"test_system": "OVCAR-5"}, "SN12C": {"test_system": "SN12C"}, "SNB-75": {"test_system": "SNB-75"}, "SF-295": {"test_system": "SF-295"}, "NCI/ADR-RES": {"test_system": "NCI/ADR-RES"}, "HCC 2998": {"test_system": "HCC 2998"}, "UACC-62": {"test_system": "UACC-62"}, "OVCAR-8": {"test_system": "OVCAR-8"}, "CAKI-1": {"test_system": "CAKI-1"}, "LOX IMVI": {"test_system": "LOX IMVI"}, "OVCAR-4": {"test_system": "OVCAR-4"}, "ACHN": {"test_system": "ACHN"}, "U-251": {"test_system": "U-251"}, "UO-31": {"test_system": "UO-31"}, "M14": {"test_system": "M14"}, "HL-60": {"test_system": "HL-60"}, "786-0": {"test_system": "786-0"}, "SNB-19": {"test_system": "SNB-19"}, "PC-3": {"test_system": "PC-3"}, "HCT-15": {"test_system": "HCT-15"}}, "note": "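Dose response: 5 concentrations. Exposure: 48 h. Format: 96-well plates. Endpoint: linear interpolation; highest concentration if not reached. GI50 = concentration required for 50% inhibition of growth.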 Calls of active or inactive are those of the source. Rule as the data show it: active = GI50 up to about 1.1 µM and inactive = higher.", "data": [{"smiles": "CCOC(=O)c1nc2cc(C(F)(F)F)ccc2nc1Oc1ccc(F)cc1", "values": [{"measurement": "GI50", "setting": "A498", "value": "> 100 µM (inactive)"}, {"measurement": "GI50", "setting": "TK-10", "value": "> 100 µM (inactive)"}, {"measurement": "GI50", "setting": "Hs-578T", "value": "> 100 µM (inactive)"}, {"measurement": "GI50", "setting": "T47D", "value": "5.9 µM (inactive)"}, {"measurement": "GI50", "setting": "COLO 205", "value": "> 100 µM (inactive)"}, {"measurement": "GI50", "setting": "A549", "value": "> 100 µM (inactive)"}, {"measurement": "GI50", "setting": "KM12", "value": "> 100 µM (inactive)"}, {"measurement": "GI50", "setting": "MOLT-4", "value": "> 100 µM (inactive)"}, {"measurement": "GI50", "setting": "DU-145", "value": "> 100 µM (inactive)"}, {"measurement": "GI50", "setting": "Malme-3M", "value": "> 100 µM (inactive)"}, {"measurement": "GI50", "setting": "K562", "value": "> 100 µM (inactive)"}, {"measurement": "GI50", "setting": "OVCAR-3", "value": "> 100 µM (inactive)"}, {"measurement": "GI50", "setting": "MCF7", "value": "> 100 µM (inactive)"}, {"measurement": "GI50", "setting": "IGROV-1", "value": "> 100 µM (inactive)"}, {"measurement": "GI50", "setting": "HOP-92", "value": "87.3 µM (inactive)"}, {"measurement": "GI50", "setting": "HCT-116", "value": "4.49 µM (inactive)"}, {"measurement": "GI50", "setting": "MDA-MB-435", "value": "> 100 µM (inactive)"}, {"measurement": "GI50", "setting": "EKVX", "value": "> 100 µM (inactive)"}, {"measurement": "GI50", "setting": "RXF 393", "value": "54 µM (inactive)"}, {"measurement": "GI50", "setting": "MDA-N", "value": "> 100 µM (inactive)"}, {"measurement": "GI50", "setting": "NCI-H522", "value": "> 100 µM (inactive)"}, {"measurement": "GI50", "setting": "SR", "value": "> 100 µM (inactive)"}, {"measurement": "GI50", "setting": "MDA-MB-231", "value": "> 100 µM (inactive)"}, {"measurement": "GI50", "setting": "SK-MEL-2", "value": "> 100 µM (inactive)"}, {"measurement": "GI50", "setting": "SF-539", "value": "> 100 µM (inactive)"}, {"measurement": "GI50", "setting": "SK-MEL-28", "value": "> 100 µM (inactive)"}, {"measurement": "GI50", "setting": "UACC-257", "value": "> 100 µM (inactive)"}, {"measurement": "GI50", "setting": "RPMI-8226", "value": "> 100 µM (inactive)"}, {"measurement": "GI50", "setting": "SF-268", "value": "> 100 µM (inactive)"}, {"measurement": "GI50", "setting": "NCI-H226", "value": "> 100 µM (inactive)"}, {"measurement": "GI50", "setting": "SW-620", "value": "> 100 µM (inactive)"}, {"measurement": "GI50", "setting": "NCI-H460", "value": "> 100 µM (inactive)"}, {"measurement": "GI50", "setting": "BT-549", "value": "> 100 µM (inactive)"}, {"measurement": "GI50", "setting": "SK-MEL-5", "value": "> 100 µM (inactive)"}, {"measurement": "GI50", "setting": "CCRF-CEM", "value": "> 100 µM (inactive)"}, {"measurement": "GI50", "setting": "OVCAR-5", "value": "> 100 µM (inactive)"}, {"measurement": "GI50", "setting": "SN12C", "value": "> 100 µM (inactive)"}, {"measurement": "GI50", "setting": "SNB-75", "value": "> 100 µM (inactive)"}, {"measurement": "GI50", "setting": "SF-295", "value": "> 100 µM (inactive)"}, {"measurement": "GI50", "setting": "NCI/ADR-RES", "value": "> 100 µM (inactive)"}, {"measurement": "GI50", "setting": "HCC 2998", "value": "> 100 µM (inactive)"}, {"measurement": "GI50", "setting": "UACC-62", "value": "> 100 µM (inactive)"}, {"measurement": "GI50", "setting": "OVCAR-8", "value": "> 100 µM (inactive)"}, {"measurement": "GI50", "setting": "CAKI-1", "value": "> 100 µM (inactive)"}, {"measurement": "GI50", "setting": "LOX IMVI", "value": "> 100 µM (inactive)"}, {"measurement": "GI50", "setting": "OVCAR-4", "value": "69.5 µM (inactive)"}, {"measurement": "GI50", "setting": "ACHN", "value": "> 100 µM (inactive)"}, {"measurement": "GI50", "setting": "U-251", "value": "> 100 µM (inactive)"}, {"measurement": "GI50", "setting": "UO-31", "value": "61.5 µM (inactive)"}, {"measurement": "GI50", "setting": "M14", "value": "> 100 µM (inactive)"}, {"measurement": "GI50", "setting": "HL-60", "value": "63.4 µM (inactive)"}, {"measurement": "GI50", "setting": "786-0", "value": "> 100 µM (inactive)"}, {"measurement": "GI50", "setting": "SNB-19", "value": "> 100 µM (inactive)"}, {"measurement": "GI50", "setting": "PC-3", "value": "> 100 µM (inactive)"}, {"measurement": "GI50", "setting": "HCT-15", "value": "> 100", "unit": "µM"}]}]}
